Reference: patent US8278032B2, “Transporter protein in mammal and utilization of the same” (priority 2005, dated 2012)
Like-named read-outs stand apart in the source and are kept apart here.

Experiments:
hMATE1 [1] = target: T1, hMATE1 (Homo sapiens, UniProt Q96FL8); assay: Inhibition of RI-labeled TEA uptake in HEK293 cells expressing hMATE1; conditions: for TEA uptake activity percent taking the level with addition of no compound as 100% (% ± S.D.): 50 μM RI-labeled TEA, pH 8.0, HEK293 cells expressing hMATE1; for Inhibition of TEA uptake activity (in words, summary of Table 1): MATE1 expressing HEK293 cells, 50 μM TEA, pH 8.0
T1 sequence (Q96FL8 1-570): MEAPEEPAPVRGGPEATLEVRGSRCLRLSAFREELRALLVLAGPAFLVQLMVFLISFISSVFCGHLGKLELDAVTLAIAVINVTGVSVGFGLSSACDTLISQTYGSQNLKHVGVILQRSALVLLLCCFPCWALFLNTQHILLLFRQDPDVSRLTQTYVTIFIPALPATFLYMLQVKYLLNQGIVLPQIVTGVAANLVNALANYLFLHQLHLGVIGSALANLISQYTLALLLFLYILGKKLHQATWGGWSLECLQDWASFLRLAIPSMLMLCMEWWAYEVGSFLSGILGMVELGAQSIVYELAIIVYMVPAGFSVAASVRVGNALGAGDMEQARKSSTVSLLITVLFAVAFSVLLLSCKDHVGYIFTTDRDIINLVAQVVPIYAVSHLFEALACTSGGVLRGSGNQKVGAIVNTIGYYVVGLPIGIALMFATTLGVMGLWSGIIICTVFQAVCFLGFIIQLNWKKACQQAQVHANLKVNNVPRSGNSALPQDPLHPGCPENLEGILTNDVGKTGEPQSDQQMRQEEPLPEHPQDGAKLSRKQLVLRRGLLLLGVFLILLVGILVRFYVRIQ

mMATE1 = target: T2, mMATE1 (Mus musculus, UniProt Q8K0H1); assay: Inhibition of RI-labeled TEA uptake in HEK293 cells expressing mMATE1; format: cell-based; conditions: for remaining activity at 1000 µM: compound 1 mM;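 on all read-outs here: transfected HEK293 cells held 5 min at 37 °C before tracer addition, uptake read as radioactivity retained on a 0.45-µm membrane filter, mean ± SD of three to nine experiments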
T2 construct: expressed in transfected cells; host or cells: HEK293
T2 sequence (Q8K0H1 with tags, fused parts or gaps): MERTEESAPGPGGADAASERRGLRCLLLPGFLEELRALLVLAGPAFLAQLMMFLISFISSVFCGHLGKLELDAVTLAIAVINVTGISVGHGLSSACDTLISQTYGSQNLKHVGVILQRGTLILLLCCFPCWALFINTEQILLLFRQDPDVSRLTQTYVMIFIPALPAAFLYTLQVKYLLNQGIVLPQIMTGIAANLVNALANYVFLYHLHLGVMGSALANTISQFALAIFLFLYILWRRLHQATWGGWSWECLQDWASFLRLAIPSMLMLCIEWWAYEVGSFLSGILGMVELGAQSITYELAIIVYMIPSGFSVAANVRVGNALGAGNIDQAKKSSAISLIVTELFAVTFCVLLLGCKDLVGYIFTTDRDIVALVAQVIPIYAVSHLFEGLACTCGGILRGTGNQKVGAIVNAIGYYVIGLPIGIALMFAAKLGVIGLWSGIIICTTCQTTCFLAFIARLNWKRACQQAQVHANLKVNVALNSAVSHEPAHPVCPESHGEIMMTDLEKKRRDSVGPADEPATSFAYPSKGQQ

hMATE1 [2] = target: T1, hMATE1
hMATE1 [3] = target: T1, hMATE1; conditions: radioactive nicotine 2 μM, FIG. 10
[4] = compound 5 mM, 50 μM RI-labeled TEA, pH 8.0, HEK293 cells expressing mMATE1
[5] = HEK293, pH 8, read-out: TEA uptake activity percent taking the level with addition of no compound as 100% (% ± S.D.)
[6] = 50 μM RI-labeled TEA, pH 8.0, HEK293 cells expressing mMATE1, read-out: TEA uptake activity percent taking the level with addition of no compound as 100% (% ± S.D.)

N=C(N)N [Guanidine]
TEA uptake activity percent taking the level with addition of no compound as 100% (% ± S.D.) (hMATE1 [1]; compound 0.5 mM): 93.4 ± 7.6%
remaining activity at 500 µM (mMATE1; compound 0.5 mM, 50 μM RI-labeled TEA, pH 8.0, HEK293 cells expressing mMATE1, read-out: TEA uptake activity percent taking the level with addition of no compound as 100% (% ± S.D.)): 96 ± 8.5%

CC(O)C(=O)O (stereo not shown) [Lactate]
TEA uptake activity percent taking the level with addition of no compound as 100% (% ± S.D.) (hMATE1 [1]; compound 10 mM): 103.8 ± 8.8%
TEA uptake activity percent taking the level with addition of no compound as 100% (% ± S.D.) (mMATE1; compound 10 mM, 50 μM RI-labeled TEA, pH 8.0, HEK293 cells expressing mMATE1): 93.9 ± 3.2%

C[n+]1ccc(-c2ccccc2)cc1 [MPP, 1-methyl-4-phenylpyridinium]
Inhibition of TEA uptake activity (in words, summary of Table 1) (hMATE1 [1]): inhibited
TEA uptake activity percent taking the level with addition of no compound as 100% (% ± S.D.) (hMATE1 [1]; compound 0.1 mM): 67.4 ± 8.4%
TEA uptake activity percent taking the level with addition of no compound as 100% (% ± S.D.) (hMATE1 [1]; compound 5 mM): 0.0 ± 0.3%
Vmax of transport (hMATE1 [2]; MPP as substrate, MATE1, species not stated): 170 pmol/min/mg protein
Km (hMATE1 [2]; read-out: Km value of transport, substrate transport, cells expressing wild type MATE1 (TEA: FIG. 9(c)), MPP: MATE1, species not stated): 16 µM
TEA uptake activity percent taking the level with addition of no compound as 100% (% ± S.D.) (mMATE1; compound 0.1 mM, 50 μM RI-labeled TEA, pH 8.0, HEK293 cells expressing mMATE1): 33.1 ± 9.5%
TEA uptake activity percent taking the level with addition of no compound as 100% (% ± S.D.) (mMATE1; [4]): 0.0 ± 2.1%

COc1ccc2[nH]cc(CCNC(C)=O)c2c1 [Melatonin]
Inhibition of TEA uptake activity (in words, summary of Table 1) (hMATE1 [1]): inhibited
TEA uptake activity percent taking the level with addition of no compound as 100% (% ± S.D.) (hMATE1 [1]; compound 0.1 mM): 85.0 ± 4.0%
remaining activity at 100 µM (mMATE1; [5]): 51.4 ± 0.8%

CNC(=O)c1cccnc1 [NMN, N-methylnicotinamide]
TEA uptake activity percent taking the level with addition of no compound as 100% (% ± S.D.) (hMATE1 [1]; compound 1 mM): 93.5 ± 1.9%
remaining activity at 1000 µM (mMATE1; [6]): 115 ± 8.9%

CN1CCCC1c1cccnc1 (stereo not shown) [Nicotine]
Inhibition of TEA uptake activity (in words, summary of Table 1) (hMATE1 [1]): mildly inhibited
TEA uptake activity percent taking the level with addition of no compound as 100% (% ± S.D.) (hMATE1 [1]; compound 0.1 mM): 63.7 ± 5.0%
TEA uptake activity percent taking the level with addition of no compound as 100% (% ± S.D.) (hMATE1 [1]; compound 5 mM): 5.8 ± 4.3%
Nicotine transport by MATE1 (in words) (hMATE1 [3]): functioning as a nicotine transporter
remaining activity at 100 µM (mMATE1; compound 0.1 mM, 50 μM RI-labeled TEA, pH 8.0, HEK293 cells expressing mMATE1, read-out: TEA uptake activity percent taking the level with addition of no compound as 100% (% ± S.D.)): 91.9 ± 3.1%
remaining activity at 5000 µM (mMATE1; compound 5 mM, 50 μM RI-labeled TEA, pH 8.0, HEK293 cells expressing mMATE1, read-out: TEA uptake activity percent taking the level with addition of no compound as 100% (% ± S.D.)): 36.7 ± 3.1%

Nc1ccc(C(=O)NCC(=O)O)cc1 [PAH]
TEA uptake activity percent taking the level with addition of no compound as 100% (% ± S.D.) (hMATE1 [1]; compound 5 mM): 110.3 ± 2.7%
TEA uptake activity percent taking the level with addition of no compound as 100% (% ± S.D.) (mMATE1; [4]): 94.7 ± 9.1%

CCCN(CCC)S(=O)(=O)c1ccc(C(=O)O)cc1 [Probenecid]
TEA uptake activity percent taking the level with addition of no compound as 100% (% ± S.D.) (hMATE1 [1]; compound 1 mM): 108.5 ± 7.9%
remaining activity at 1000 µM (mMATE1; [6]): 93.7 ± 11.9%

CCN(CC)CCNC(=O)c1ccc(N)cc1 [Procainamide]
TEA uptake activity percent taking the level with addition of no compound as 100% (% ± S.D.) (hMATE1 [1]; compound 0.1 mM): 62.6 ± 0.8%
remaining activity at 100 µM (mMATE1; [5]): 65.7 ± 8.2%
